According to patent publication US12129238B2, “Crystalline form of propoxazepam, the method of its making and use as medicinal agent” (priority 2018, dated 2024):

Columns and labels:
Type in all cases: in vivo
[1] = test system: rats; test: Model of thermal nociception (tail flick test) on rats; settings: rat tail-flick, latency 2 hours after administration, dispersed in saline with Tween 80
Method: Antinociceptive (analgesic) activity was evaluated on a rat tail “tail-flick” model using a focused light beam on rats. Latency time was determined by tail pulling away from the beam source, expressed in seconds. Animals were randomized with respect to the initial value of the latent period, with index from 4 to 12 seconds. The magnitude of the antinociceptive effect was indicated by the increasing of the length of the latent period (pain sensitivity threshold, PST). The initial indices of the PST and its changes 2 hours after the administration of the test compound were compared. The calculation of ED50 (the average effective dose of analgesic activity in this model for rats) was carried out using the least squares method.
Three samples of compound (I) were prepared and used in the ‘tail-flick’ test: • The first sample is prepared using the sample of Comparative Example 1, i.e. Form I, in its natural coarse crystalline state. In particular, the coarse crystalline sample of Comparative Example 1 is dispersed in a saline solution and stabilized with Tween 80). The crystalline structure (Form I) remains unchanged. • The second sample was prepared by micronizing (mechanically grinding) the coarse crystalline sample of Comparative Example 1, in order to prepare a sample of Form I having a smaller average particle size. In particular, the micronized sample is dispersed in a saline solution and stabilized with Tween 80). The crystalline structure (Form I) remains unchanged. • The third sample is a dispersed sample of Inventive Example 1, i.e. compound (I) in crystalline Form II. In particular, a sample of Inventive Example 1 is dispersed in a saline solution and stabilized with Tween 80). The crystalline structure (Form II) remains unchanged. The third sample has a similar average particle size to the second sample for a side-by-side comparison.

[2] = test system: mice; test: Model of acetic acid-induced pain (cramps) on mice; settings: 0.75% acetic acid i.p. 2 hours after test compound, cramps counted 1st to 20th minute
Method: To reproduce acute visceral and somatic deep pain (nociceptive pain), the method of “acetic acid-induced pain (cramps)” was used in mice. The mice received a 0.75% solution of acetic acid intraperitoneally (at a dose of 0.1 ml/10 g of body weight), 2 hours after the administration of the test compounds. The number of cramps was counted from the first to the 20th minute (inclusive) after modeling the pathological state. The calculation of ED50 (the average effective dose of analgesic activity in this model for mice) was carried out using the least squares method.
Two samples of compound (I) were prepared and used in the ‘tail-flick’ test: • The first sample is a dispersed sample of Form I. This was prepared by adding a hot (65° C.) saturated solution of Comparative Example 1 (Form I) in ethyl alcohol to water at room temperature (about 20° C.) and atmospheric pressure (about 101.325 KPa). Dispersed Form I has a particle size (D(50)) of around 29 μm. • The second sample is a dispersed sample of Inventive Example 1, i.e. compound (I) in crystalline Form II. This sample is prepared by was dispersing Inventive Example 1 in a saline solution stabilized with Tween-80. The crystalline structure remains unchanged. Dispersed Form II has a particle size (D(50)) of around 24.3 μm.

[3] = test system: mice; test: Determination of the mean lethal dose (LD50), oral administration to mice; settings: stabilized suspension in isotonic sodium chloride solution, 14 days observation
Excerpt: (§1) The preliminary assignment of a substance to a certain toxicity class is based on an indicator that quantitatively characterizes the acute toxicity of the compound—the dose of the substance that causes a lethal effect in 50% of the population (LD50). Determination of this indicator in one of the types of experimental animals allows to extrapolate it for other species and justify the dose limits for the first phase of clinical trials.
(§2) To calculate the average dose, mortality/survival rates of the animals by the end of the observation period were used.

[4] = as above; settings: mouse, in vivo, po, stabilized suspension in isotonic sodium chloride solution, 14 days observation
Excerpt: as §1, §2

CCCOC1N=C(c2ccccc2Cl)c2cc(Br)ccc2NC1=O (stereo not shown) [Form II, 7-Bromo-3-propoxy-5-(2-chlorophenyl)-1,3-dihydrobenzo-[e]-[1,4]-diazepin-2-one]
ED50 (Average effective dose (50%)) [1]: 0.17 mg/kg
ED50 (Average effective dose (50%)) ([2]; listed as Dispersed Form II): 0.89 mg/kg
LD50 (mean lethal dose) [3]: 1475 ± 402 mg/kg

CCCOC1N=C(c2ccccc2Cl)c2cc(Br)ccc2NC1=O (stereo not shown) [Form I, 7-Bromo-3-propoxy-5-(2-chlorophenyl)-1,3-dihydrobenzo-[e]-[1,4]-diazepin-2-one]
ED50 (Average effective dose (50%)) ([1]; listed as Form I (coarse crystalline)): 1.82 mg/kg
ED50 (Average effective dose (50%)) ([1]; listed as Form I (micronized)): 1.06 mg/kg
ED50 (Average effective dose (50%)) ([2]; listed as Dispersed Form I): 1.87 mg/kg
LD50 at 14 days [4]: 1120 ± 190 mg/kg
